Measured values taken from ChEMBL document CHEMBL5604062, “ASAP - ZIKV NS2B-NS3 protease fluorescence dose response” (2024).
pIC50: −log10 of the molar value. Where “and” joins values, the source holds several entries; their conditions need not be identical. Identical values can stand only once.

Columns and labels:
[1] = biological target: T1, Nonstructural protein 3 (Zika virus, UniProt A0A024AXB9); test: Functional biochemical assay to identify treatments for viral infectious disease that targets Zika NS2B-NS3 protease. Utilizing a direct enzyme activity measurement method, reading the fluorescence intensity is used to characterize the relative potency of inhibitors as IC50.; design: species or system PRVABC59
[2] = biological target: T1, Nonstructural protein 3; test: Functional biochemical assay to identify treatments for viral infectious disease that targets Zika NS2B-NS3 protease. Utilizing a direct enzyme activity measurement method, reading the fluorescence intensity is used to characterize the relative potency of inhibitors as IC50. Synthetic construct has been made based on Zika virus (strain PRVABC59) by Centre for Medicines Discovery, University of Oxford, and the assay has been performed by Enamine biological services, Bienta Ltd.The protocol is publicly available: dx.doi.org/10.17504/protocols.io.36wgqn273gk5/v1

T1 sequence (A0A024AXB9 whole entry): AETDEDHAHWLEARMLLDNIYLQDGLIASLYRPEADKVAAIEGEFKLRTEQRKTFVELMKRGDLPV

Compound	pIC50 [1]	pIC50 [2]
O=C1Cc2c(cccc2C(=O)Nc2ccc3c(c2)CCNCC3)N1	5.91	5.68
Cc1c(C(=O)Nc2cccc(CS(C)(=O)=O)c2)cc(C2CC2)n1C	< 4.60	< 4.60
O=C1Cc2c(cccc2C(=O)Nc2nnc3n2CCCS3)N1	< 4.60	< 4.60
CN(C)C(=O)C[C@H]1NCc2cc(NC(=O)c3cc(F)cc4[nH]ncc34)ccc21	6.31	6.30 and 5.88
N#CCc1cc(NC(=O)c2cc(F)cc3[nH]ncc23)cc2c1CNC2	7.80 and > 7.92	7.15 and 7.10
Clc1cc(CNc2ncc3c(n2)CNC3)c2cn[nH]c2c1	< 4.60	< 4.60
O=C(NCC(F)F)[C@H](Nc1ccc2c(c1)CNC2)c1cc(Br)ccc1C1CC1	6.45	6.20
O=C(NCC(F)F)[C@H](Nc1cnc2c(c1)CNC2)c1cc(Cl)cc(C2CC2)c1	7.70 and > 7.92	6.94 and 6.97
C[C@H]1NCc2ccc(NC(=O)c3cc(Cl)cc4[nH]ncc34)cc21	5.82	5.45 and 5.40
O=C([C@H](Nc1ccc2c(c1)CNC2)c1cc(Cl)cc(C2CC2)c1)N1CCOCC1	6.40	5.68
O=C1Cc2c(cccc2C(=O)Nc2nc([C@H]3CCCOC3)cs2)N1	< 4.60	< 4.60
O=C1Cc2c(cccc2C(=O)Nc2cnn(Cc3ccncc3)c2)N1	< 4.60	< 4.60
CO[C@H]1Cc2ccc(NC(=O)c3cc(C4CC4)n(C)c3C)cc2C1	< 4.60	< 4.60
O=C1Nc2ccc(C(=O)Nc3ccc4c(c3)CNC4)cc2C1=O	5.83 and 5.76	5.09
Cc1c(C(=O)Nc2cccc(-c3ccoc3)c2)cc(C2CC2)n1C	< 4.60	< 4.60
COC(=O)[C@H]1NCc2cc(NC(=O)c3cc(F)cc4[nH]ncc34)ccc21	5.32	4.67
Clc1cc(CNc2ccc3c(n2)CNC3)c2cn[nH]c2c1	< 4.60	< 4.60

Compound	pIC50 [1]	pIC50 [2]
CC(C)(C)OC(=O)N1Cc2ccc(N[C@H](C(=O)O)c3cc(Cl)cc4[nH]ncc34)cc2C1	< 4.60	< 4.60
C[C@]1(S(C)(=O)=O)C(=O)Nc2cc(F)cc(C(=O)Nc3ccc4c(c3)CNC4)c21	5.40	5.11 and 5.04
O=C1Cc2c(cccc2C(=O)Nc2ccc3c(c2)[C@H](O)CCO3)N1	< 4.60	< 4.60
O=C(O)COc1ccc(Cl)cc1[C@H](Nc1ccc2c(c1)CNC2)C(=O)NCC(F)F	6.74	6.59
CC(=O)N1CC[C@]2(C1)C(=O)Nc1cccc(C(=O)Nc3ccc4c(c3)CNC4)c12	6.90	6.15
CCc1cnc2c(NC(=O)c3cccc4c3CC(=O)N4)cnn2c1	< 4.60	< 4.60
C[C@H](NC(=O)c1cccc2c1CC(=O)N2)c1nnc2n1CCCC2	< 4.60	< 4.60
Cc1c(C(=O)Nc2ccc3c(c2F)CCN(C)C3=O)cc(C2CC2)n1C	< 4.60	< 4.60
CC(=O)N(c1ccc2c(c1)CNC2)[C@]1(c2cc(Cl)cc(C3CC3)c2)CCCN(C)C1=O	< 4.60	< 4.60
C[C@H]1C(=O)Nc2ccc(C(=O)Nc3ccc4c(c3)CNC4)cc21	4.97	5.38 and 5.48
N#Cc1cccc(-c2nc3c(C(=O)Nc4ccccn4)cc(Cl)cc3[nH]2)c1	< 4.60	< 4.60
Cc1cc(NC(=O)c2cc(C3CC3)n(C)c2C)ccc1OC1CCOCC1	< 4.60	< 4.60
COCCN(C)C(=O)[C@H](Nc1ccc2c(c1)CNC2)c1cc(Cl)cc(C2CC2)c1	5.92	5.33
N#CCOc1ccc(Br)cc1[C@H](Nc1ccc2c(c1)CNC2)C(=O)NCC(F)F	7.24 and 7.38	6.87 and 6.84
O=C(NCC(F)F)[C@H](Nc1cc2c(cc1Br)CNC2)c1cc(Cl)cc(C2CC2)c1	7.72 and 7.89	6.97 and 7.04
O=C(NCC(F)F)[C@H](Nc1ncc2c(n1)CNC2)c1cc(Cl)cc(C2CC2)c1	5.38	4.71
